We go through 15 compounds from patent US20240383915A1, “OXAZEPINE COMPOUNDS AND USES THEREOF IN THE TREATMENT OF CANCER” (Genentech, Inc., priority 2021, published 2024).

Structures are written as SMILES.

In one test the target is KRAS wild type (Homo sapiens (Human), UniProt P01116). Put plainly: KRas (wt) GDP HTRF (BODIPY-GDP exchange TR-FRET). Type of test: biochemical. On the procedure: (§1) KRAS Biochemical Assay—BODIPY-GDP Exchange TR-FRET. Biochemical compound potencies were assessed by evaluating inhibition of SOS1-mediated nucleotide exchange in KRAS G12D. The SOS1-promoted exchange of fluorescently-labeled GDP (BODIPY-GDP) was monitored by time-resolved fluorescence resonance energy transfer (TR-FRET). Compounds solubilized in DMSO were dispensed as concentration series into 384-well white assay plates. A preformed complex of biotin-tagged recombinant human KRAS (1.5 nM mutant G12D or wild type) and 0.15 nM terbium-labeled streptavidin (CisBIO) prepared in 10 μL/well assay buffer (20 mM HEPES, pH 7.5, 50 mM NaCl, 10 mM MgCl2, 0.01% Tween-20 and 1 mM dithiothreitol) was added and allowed to incubate for 10-minutes. The reaction was initiated with the addition of 5 μL of 3 nM recombinant human SOS1 and 300 nM BODIPY-GDP in assay buffer. After a 60-minute incubation, the fluorescence was measured with excitation at 337 nm and emission at 490 and 520 nm. The TR-FRET ratio was determined as the fluorescence at 520 nm divided by the fluorescence at 490 nm multiplied by 10,000. […] The normalized TR-FRET results were plotted against compound concentration, and the data fit to a 4-parameter Hill equation to determine the IC50 values.
In general terms: TR-FRET usually uses a lanthanide donor and a delayed reading to cut background.

Test [1] has as its system KRAS wild type human lung adenocarcinoma cell line (PC-9). Put plainly: KRAS 3D-cell proliferation assay, CTG panel non G12D. Type of test: cell-based. The conditions noted are these: 168 h, CellTiter-Glo 3D, 7 days. On the procedure: (§2) KRAS 3D-Cell Proliferation Assays. Cellular potencies of compounds were assessed by evaluating inhibition of proliferation in 3D cultures of homozygous mutant KRAS G12D human pancreatic cell lines (AsPC-1 and SW1990) as compared to a KRAS wild type human lung adenocarcinoma cell line (PC-9). Cells were seeded into 384-well black round-bottom, ultra-low attachment assay plates in 50 μL cell growth medium (RPMI-1640 with 10% fetal bovine serum and 2 mM L-glutamine). After overnight incubation at 37° C. and 5% CO2, compounds solubilized in DMSO were added as dilution series to the wells in a total volume of 150 nL (0.3% DMSO final). The cells were incubated for 7 days at 37° C. and 5% CO2. Cell proliferation was quantitated by addition of 40 μL/well of CellTiter-Glo® 3D (Promega). This reagent in combination with mechanical disruption releases the cellular ATP to promote activity in a luciferase-based enzyme/substrate chemiluminescent detection system. After a 25-minute incubation under ambient conditions with shaking and an additional 10 minutes without shaking, the contents of the wells were mixed by pipetting up and down repeatedly to disrupt the spheroids, and then the plates were centrifuged to remove bubbles. The plates were incubated for another 15 minutes under ambient conditions, and the luminescence read on a plate reader (e.g. EnVision [PerkinElmer]). […] The normalized luminescence results were plotted against compound concentration, and the data fit to a 4-parameter Hill equation to determine the IC50 values.
Background: Cellular ATP, detected with luciferase, serves as a proxy for viable cell number.

The test system of test [2] is KRAS G12D human pancreatic cell lines (AsPC-1 and SW1990). Put plainly: KRAS 3D-cell proliferation assay, CTG panel (G12D). Type of test: cell-based. The conditions noted are these: 168 h, CellTiter-Glo 3D, 7 days. As to the method:
as §2

For test [3], the target named is Raf-RBD/KRAS G12D interaction (Homo sapiens (Human), UniProt P01116, G12D). As to the kind of experiment: KRAS G12D NanoBRET assay. Type of test: cell-based. The conditions noted are these: HCT116. As to the method:
KRAS G12D NanoBRET Assay. Cellular target engagement was assessed by monitoring inhibition of the Raf-RBD/KRAS G12D interaction in a NanoBRET™ assay (Promega). […] Cells were seeded into 384-well white tissue culture-treated assay plates in 40 μL culture medium (RPMI-1640 with 10% fetal bovine serum, 2 mM glutamine, […] puromycin, and 4 ng/mL blasticidin) with doxycycline to induce KRAS G12D-nanoluciferase expression over 20-24 h at 37° C., 5% CO2. The culture medium was then removed and replaced with assay medium (Opti-MEM® with 4% fetal bovine serum) and 0.1 μM HaloTag618 ligand. During the subsequent 4 h incubation at 37° C., 5% CO2, the HaloTag618 ligand binds to the Halotag-labeled KRAS G12D. Compounds solubilized in DMSO were then added as dilution series to the wells in a total volume of 160 nL (0.4% DMSO final), and the plates were incubated overnight at 37° C., 5% CO2. In the final step, 10 μL NanoGlo substrate in Opti-MEM was added to each well, and the emission read at 460 nm (luciferase signal) and 610 nm (NanoBRET signal) on an EnVision plate reader (PerkinElmer). The Raf-RBD/KRAS G12D interaction results in bioluminescence resonance energy transfer (BRET) from the product of the luciferase reaction in the vicinity of the Raf-RBD to the HaloTag ligand acceptor on the KRAS G12D and generates the NanoBRET signal. Binding of compounds to KRAS G12D and disruption of its interaction with Raf-RBD results in reduction of this signal. The luciferase signal and NanoBRET signal for compound wells were divided by the average corresponding signal for DMSO control wells. Then the NanoBRET ratio was calculated by dividing the control-adjusted NanoBRET signal by the similarly adjusted luciferase signal. […] The normalized NanoBRET ratio results were plotted against compound concentration, and the data fit to a 4-parameter Hill equation to determine the IC50 values.
(Bioluminescence resonance energy transfer reports proximity on the nanometre scale.)

For the next test, the target named is KRAS G12D (Homo sapiens (Human), UniProt P01116, G12D). Put plainly: KRas (G12D) GDP HTRF (BODIPY-GDP exchange TR-FRET). Type of test: biochemical. On the procedure:
as §1

Sequence of KRAS G12D (P01116-2 other isoform, or with tags, fused parts or gaps G12D): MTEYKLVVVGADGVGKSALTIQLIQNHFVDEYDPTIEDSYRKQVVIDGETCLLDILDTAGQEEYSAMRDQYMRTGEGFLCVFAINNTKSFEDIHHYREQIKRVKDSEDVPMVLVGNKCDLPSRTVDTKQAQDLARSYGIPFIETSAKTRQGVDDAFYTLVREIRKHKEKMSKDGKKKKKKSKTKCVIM
Sequence of Raf-RBD/KRAS G12D interaction (P01116-2 other isoform, or with tags, fused parts or gaps G12D): as above
Sequence of KRAS wild type (P01116-2 other isoform, or with tags, fused parts or gaps): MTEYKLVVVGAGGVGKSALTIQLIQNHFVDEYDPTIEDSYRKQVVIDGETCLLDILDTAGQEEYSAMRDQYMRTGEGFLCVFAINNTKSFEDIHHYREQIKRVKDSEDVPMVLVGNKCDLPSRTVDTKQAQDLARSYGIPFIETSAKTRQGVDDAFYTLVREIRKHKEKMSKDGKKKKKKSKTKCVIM

Regarding `C=C1CN2CCC[C@@]2(COc2nc3c4c(c(Cl)c(-c5nc(N)cc(C)c5C(F)(F)F)cc4n2)OCCN3CCN(C)C)C1` [Example 511], the IC50 (as a rule, the concentration that inhibits the measured activity by half) on KRAS wild type was 0.0484 µM; in test [1], 2.96 µM; in test [2] it was 2.24 µM; in test [3] it was 8.05 µM; on KRAS G12D, 0.00607 µM.

For `Cc1cc(N)nc(-c2cc3ncnc4c3c(c2Cl)OC[C@H](CC#N)N4C2CCNC2)c1C(F)(F)F` (single isomer, unassigned) [Example 508], the figures for the IC50 (against KRAS wild type; in test [3]; against KRAS G12D) were 8.11 µM, at least 10 µM and 0.472 µM, respectively.

Regarding `CNCCN1CCOc2c(Cl)c(-c3nc(N)cc(C)c3C(F)(F)F)cc3ncnc1c23` [Example 503], the figures for the IC50 (at KRAS wild type; in test [3]; against KRAS G12D) were 94.3 µM, at least 10 µM and 4.62 µM, respectively.

As for `Cc1cc(N)nc(-c2cc3nc(OC[C@@H]4C[C@@H](F)CN4C)nc4c3c(c2Cl)OCCN4CCN(C)C)c1C(F)(F)F` [Example 509, 6-(8-Chloro-4-(2-(dimethylamino)ethyl)-2-(((2S,4R)-4-fluoro-1-methylpyrrolidin-2-yl)methoxy)-5,6-dihydro-4H-[1,4]oxazepino[5,6,7-de]quinazolin-9-yl)-4-methyl-5-(trifluoromethyl)pyridin-2-amine], the IC50 on KRAS wild type turned out to be 1.66 µM; in test [3] it was 9.85 µM; against KRAS G12D it was 0.164 µM.

Regarding `C=C1CN2CCC[C@@]2(COc2nc3c4c(c(Cl)c(-c5nc(N)cc(C)c5C(F)(F)F)c(F)c4n2)OCCN3CCN(C)C)C1` (single isomer, unassigned) [Example 514], the IC50 against KRAS wild type was 4.12 µM; in test [3], at least 10 µM; against KRAS G12D, 0.817 µM.

In the case of `Cc1cc(N)nc(-c2cc3ncnc4c3c(c2Cl)OC[C@H](CC#N)N4C2CCNC2)c1C(F)(F)F` (single isomer, unassigned) [Example 507], the results for the IC50 (against KRAS wild type; in test [3]; on KRAS G12D) were 8.65 µM, at least 10 µM and 0.276 µM, respectively.

Turning to `Cc1cc(N)nc(-c2cc3ncnc4c3c(c2Cl)OCCN4C2CCNC2)c1C(F)(F)F` (stereo not drawn) [Example 505], the IC50 against KRAS wild type was 66.4 µM; in test [3], at least 10 µM; on KRAS G12D it was 1.73 µM.

With `Cc1cc(N)nc(-c2cc3ncnc4c3c(c2Cl)OCCN4CCN(C)CCO)c1C(F)(F)F` [Example 502, 2-((2-(9-(6-Amino-4-methyl-3-(trifluoromethyl)pyridin-2-yl)-8-chloro-5,6-dihydro-4H-[1,4]oxazepino[5,6,7-de]quinazolin-4-yl)ethyl)(methyl)amino)ethan-1-ol], the IC50 on KRAS wild type was 71.4 µM; in test [1] it was 7.88 µM; in test [2], 9.65 µM; in test [3], at least 10 µM; against KRAS G12D, 2.77 µM.

`Cc1cc(N)nc(-c2cc3ncnc4c3c(c2Cl)OCCN4CCN2CCOCC2)c1C(F)(F)F` [Example 504]: the IC50 on KRAS wild type is 15.1 µM; in test [1], 18.5 µM; in test [2], 14.9 µM; in test [3] it was at least 10 µM; at KRAS G12D, 3.46 µM.

On to `C=C1CN2CCC[C@@]2(COc2nc3c4c(c(F)c(-c5nc(N)cc(C)c5C(F)(F)F)c(F)c4n2)OCCN3CCN(C)C)C1` (single isomer, unassigned) [Example 523], for which the half-inhibitory concentration (IC50) is 0.088 µM against KRAS wild type, 7.7 µM in test [1], at least 10 µM in test [3] and 0.0119 µM at KRAS G12D.

With `Cc1cc(N)nc(-c2cc3nc(OCC45CCCN4CCC5)nc4c3c(c2Cl)OCCN4CCN(C)C)c1C(F)(F)F` [Example 510], the IC50 is 0.24 µM against KRAS wild type, at least 10 µM in test [3] and 0.0136 µM against KRAS G12D.

Take `Cc1cc(N)nc(-c2cc3ncnc4c3c(c2Cl)OCCN4C2CCNC2)c1C(F)(F)F` (stereo not drawn) [Example 506]: the IC50 on KRAS wild type was 55 µM; in test [3], at least 10 µM; at KRAS G12D, 2.4 µM.

As for `C=C1CN2CCC[C@@]2(COc2nc3c4c(c(Cl)c(-c5nc(N)cc(C)c5C(F)(F)F)c(F)c4n2)OCCN3CCN(C)C)C1` (single isomer, unassigned) [Example 513], the IC50 was 0.0108 µM against KRAS wild type; 2.29 µM in test [1]; 1.08 µM in test [2]; 2.58 µM in test [3]; 0.00155 µM on KRAS G12D.

With `Cc1cc(N)nc(-c2cc3ncnc4c3c(c2Cl)OCCN4CCN(C)C)c1C(F)(F)F` [Example 501, 6-(8-Chloro-4-(2-(dimethylamino)ethyl)-5,6-dihydro-4H-[1,4]oxazepino[5,6,7-de]quinazolin-9-yl)-4-methyl-5-(trifluoromethyl)pyridin-2-amine], the IC50 is 109 µM on KRAS wild type, at least 10 µM in test [3] and 4.16 µM against KRAS G12D.

Take `C=C1CN2CCC[C@@]2(COc2nc3c4c(c(F)c(-c5nc(N)cc(C)c5C(F)(F)F)c(F)c4n2)OCCN3CCN(C)C)C1` (single isomer, unassigned) [Example 524]: the IC50 on KRAS wild type was 2.68 µM; in test [3], at least 10 µM; at KRAS G12D, 0.48 µM.
